Laboratory results reported in patent publication US6569878B1, “Substituted 4-amino-thiazol-2-yl compounds as cyclin-dependent kinase inhibitors” (Agouron Pharmaceuticals Inc., priority 1997, dated 2003).

What was measured:
[1] = system: HCT116; experiment: Inhibition of cell growth, MTT assay, HCT116; format: cell-based, human; settings: Homo sapiens; for IC50 / IC90: HCT-116; for inhibition at 30 µM: HCT-116, at 30 μM
Summary of the method: (§1)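 Cells rested 4 h after plating, then exposed to graded compound concentrations in 0.5% (v/v) DMSO for four to six days (cell-type dependent) at 37° C, 5% CO2. Viability was read by MTT (0.2 mg/mL final, 4 h at 37° C), with DMSO-solubilized formazan measured at 540 nm.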

[2] = molecular target: T1, complex of human CDK4 and cyclin D3 (Homo sapiens, UniProt P11802); experiment: Inhibition of CDK4/cyclin D retinoblastoma kinase activity (D-type cyclin is D3); format: biochemical; settings: superscript a: D-type cyclin is D3; apparent Ki; read-out: Ki CDK 4/D
T1 construct: made in house; host or cells: insect cells, co-infected with baculovirus
T1 sequence (P11802 whole entry): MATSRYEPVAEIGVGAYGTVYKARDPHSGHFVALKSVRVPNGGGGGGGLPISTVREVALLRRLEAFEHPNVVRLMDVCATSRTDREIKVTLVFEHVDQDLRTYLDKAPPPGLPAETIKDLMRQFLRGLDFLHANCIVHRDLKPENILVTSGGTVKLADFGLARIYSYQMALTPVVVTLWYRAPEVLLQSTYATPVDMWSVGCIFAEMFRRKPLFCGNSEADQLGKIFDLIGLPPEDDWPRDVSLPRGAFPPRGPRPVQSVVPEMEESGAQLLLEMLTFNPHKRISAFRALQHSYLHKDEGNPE
T1 sequence (P30281 whole entry partner): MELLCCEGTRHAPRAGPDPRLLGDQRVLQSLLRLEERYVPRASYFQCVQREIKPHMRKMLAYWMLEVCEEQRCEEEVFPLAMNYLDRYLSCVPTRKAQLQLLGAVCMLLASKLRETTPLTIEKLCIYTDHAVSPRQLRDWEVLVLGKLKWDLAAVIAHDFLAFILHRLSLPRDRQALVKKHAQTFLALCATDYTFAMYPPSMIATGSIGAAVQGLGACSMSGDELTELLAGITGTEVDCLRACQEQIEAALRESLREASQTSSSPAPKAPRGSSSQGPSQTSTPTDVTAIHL
Summary of the method: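 Apparent Ki derived by fitting background-corrected activity to competitive (or, for tight binders, competitive tight-binding) equations with measured ATP Km. Rb phosphorylation by radiolabelled ATP was measured at 30°C, 20 min standard or 60 min at 5 nM complex for tight binders, via nitrocellulose capture and phosphorimager.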

[3] = molecular target: T2, CDK2/cyclin A (Homo sapiens, UniProt P24941); experiment: Inhibition of CDK2/cyclin A retinoblastoma kinase activity; format: biochemical; settings: read-out: Ki CDK 2/A
T2 construct: made in house; host or cells: CDK2: insect cells (baculovirus); cyclin A: E. coli, then limited proteolysis
Summary of the method: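 Baculovirus-expressed CDK2 with excess proteolyzed cyclin A (or purified complex), 150 nM or 5 nM, phosphorylating an Rb fragment with 25 μM [32/33P]ATP, pH 7.4, 30° C, 20 min. Filter-captured radioactivity by phosphorimager; apparent Ki from fits to competitive or tight-binding competitive inhibition using measured ATP Km.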

[4] = molecular target: T3, human CDK1 (cdc2) and cyclin B (Homo sapiens, UniProt P06493); experiment: Inhibition of CDK1(cdc2)/cyclin B histone H1 kinase activity; format: biochemical; settings: read-out: Ki CDK 1/B
T3 construct: purchased New England Biolabs (Beverly Mass.)
T3 sequence (P06493 whole entry): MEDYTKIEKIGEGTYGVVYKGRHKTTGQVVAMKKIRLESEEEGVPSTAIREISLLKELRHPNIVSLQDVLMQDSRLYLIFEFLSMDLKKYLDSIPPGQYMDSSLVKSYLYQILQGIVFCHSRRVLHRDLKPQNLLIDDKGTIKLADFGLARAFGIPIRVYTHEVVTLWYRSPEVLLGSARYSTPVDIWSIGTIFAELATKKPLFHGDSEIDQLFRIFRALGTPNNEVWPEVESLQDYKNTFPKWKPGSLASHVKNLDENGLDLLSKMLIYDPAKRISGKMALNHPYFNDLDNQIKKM
T3 sequence (P14635 whole entry partner): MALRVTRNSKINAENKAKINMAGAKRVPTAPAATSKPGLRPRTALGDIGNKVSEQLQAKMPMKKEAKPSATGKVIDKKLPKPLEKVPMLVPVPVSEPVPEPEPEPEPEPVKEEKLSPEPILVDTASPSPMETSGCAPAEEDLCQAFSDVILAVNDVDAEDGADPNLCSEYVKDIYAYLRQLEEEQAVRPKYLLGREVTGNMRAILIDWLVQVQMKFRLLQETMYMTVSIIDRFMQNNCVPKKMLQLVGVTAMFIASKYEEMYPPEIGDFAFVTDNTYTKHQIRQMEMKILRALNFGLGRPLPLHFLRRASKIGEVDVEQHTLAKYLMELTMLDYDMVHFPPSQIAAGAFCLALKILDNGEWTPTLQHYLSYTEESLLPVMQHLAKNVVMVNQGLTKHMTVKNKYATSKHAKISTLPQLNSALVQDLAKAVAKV
Method: Cyclin-dependent kinase activity was measured by quantifying the enzyme-catalyzed, time-dependent incorporation of radioactive phosphate from [^32P]ATP or [^33P]ATP into a protein substrate. Unless noted otherwise, assays were performed in 96-well plates in a total volume of 50 μL, in the presence of 10 mM HEPES (N-[2-hydroxyethyl]piperazine-N′-[2-ethanesulfonic acid]) (pH 7.4), 10 mM MgCl2, 25 μM adenosine triphosphate (ATP), 1 mg/mL ovalbumin, 5 μg/mL leupeptin, 1 mM dithiothreitol, 10 mM β-glycerophosphate, 0.1 mM sodium vanadate, 1 mM sodium fluoride, 2.5 mM ethylene glycol-bis(β-aminoethyl ether)-N,N,N′N′-tetraacetic acid (EGTA), 2% (v/v) dimethylsulfoxide, and 0.03-0.4 μCi [^32/33P]ATP per reaction. Reactions were initiated with enzyme, incubated at 30° C., and terminated after 20 minutes by the addition of ethylenediaminetetraacetic acid (EDTA) to 250 mM. The phosphorylated substrate was then captured on a nitrocellulose or phosphocellulose membrane using a 96-well filtration manifold, and unincorporated radioactivity was removed by repeated washing with 0.85% phosphoric acid. Radioactivity was quantified by exposing the dried membranes to a phosphorimager.
Apparent Ki values were measured by assaying enzyme activity in the presence of different inhibitor compound concentrations and subtracting the background radioactivity measured in the absence of enzyme. The kinetic parameters (kcat, Km for ATP) were measured for each enzyme under the usual assay conditions by determining the dependence of initial rates on ATP concentration. Inhibition data were fit to an equation for competitive inhibition using Kaleidagraph (Synergy Software), or were fit to an equation for competitive tight-binding inhibition using the software KineTic (BioKin, Ltd.).
The complex of human CDK1 (cdc2) and cyclin B was purchased from New England Biolabs (Beverly Mass.). Alternatively, a CDK1/glutathione-S-transferase-cyclin B1 complex was purified using glutathione affinity chromatography from insect cells that had been co-infected with the corresponding baculovirus expression vectors. The assay was executed as described above at 30° C. using 2.5 units of cdc2/cyclin B, 10 μg Histone H1 protein, and 0.1-0.3 μCi [^32/33P]ATP per assay. Phosphorylated histone substrate was captured by microfiltration on a phosphocellulose P81 membrane and quantified using a phosphorimager as described above. Ki values were measured using the described curve-fitting programs.

[5] = system: SW-480; experiment: Inhibition of cell growth, MTT assay, SW-480; format: cell-based; settings: Homo sapiens, SW480, SW-480, MTT assay
Method: Inhibition of cell growth was measured using the tetrazolium salt assay, which is based on the ability of viable cells to reduce 3-(4,5-dimethylthiazol-2-yl)-2,5-[2H]-diphenyltetrazolium bromide (MTT) to formazan (Mossman, Journal of Immunological Methods, vol. 65 (1983), pp. 55-58). The water-insoluble purple formazan product was then detected spectrophotometrically. Various cell lines (HCT-116, Saos-2, U2-OS, SW480, COLO-205, RXF-393, M14, MDA-MB-468, and MCF7) were grown in 96-well plates. Cells were plated in the appropriate medium at a volume of 135 μl/well in either McCoy's 5A Medium (for Saos-2, U2-OS, SW480, and HCT-116 cells), RPMI (for COLO-205, RXF-393, M14 cells), or Minimum Essential Medium Eagle (for MDA-MB-468 and MCF7 cells). Plates were incubated for four hours before addition of inhibitor compounds. Different concentrations of inhibitor compounds were added in 0.5% (v/v) dimethylsulfoxide (15 μL/well), and cells were incubated at 37° C. (5% CO2) for four to six days (depending on cell type). At the end of the incubation, MTT was added to a final concentration of 0.2 mg/mL, and cells were incubated for 4 hours more at 37° C. After centrifugation of the plates and removal of medium, the absorbance of the formazan (solubilized in dimethylsulfoxide) was measured at 540 nm. […] All results were compared to control cells treated only with 0.5% (v/v) dimethylsulfoxide.

[6] = system: U2-OS; experiment: Inhibition of cell growth, MTT assay, U2-OS; format: cell-based; settings: Homo sapiens, U2OS
Summary of the method: as §1

[7] = system: Saos-2; experiment: Inhibition of cell growth, MTT assay, Saos-2; format: cell-based; settings: Homo sapiens; Saos-2, MTT assay
Summary of the method: as §1

| SMILES | IC50 [1] | IC90 [1] | Ki [2] | Ki [3] | Ki [4] | IC50 [5] | IC90 [5] | inhibition at 30 µM [1] | inhibition at 30 µM [5] | IC50 [6] | IC90 [6] | IC50 [7] | IC90 [7] | inhibition at 10 µM ([5]; at 10 μM) | inhibition at 10 µM ([1]; HCT-116, at 10 μM) |
| --- | --- | --- | --- | --- | --- | --- | --- | --- | --- | --- | --- | --- | --- | --- | --- |
| Nc1nc(NCCc2ccccc2)sc1C(=O)c1ccccc1[N+](=O)[O-] [C(5), (4-Amino-2-phenethylamino-thiazol-5-yl)-(2-nitro-phenyl)-methanone] | 6000 nM | 25000 nM | 140 nM | 780 nM | 293 nM | 3000 nM | 9000 nM |  |  |  |  |  |  |  |  |
| CN(C)c1ccc(Nc2nc(N)c(C(=O)c3ccccn3)s2)cc1 [I(19)] |  |  | 1600 nM | 4800 nM |  | 22000 nM |  | 16% | 58% |  |  |  |  |  |  |
| CCOC(=O)c1ccc(Nc2nc(N)c(C(=O)c3ccccc3[N+](=O)[O-])s2)cc1 [A(5), Ethyl 4-[4-Amino-5-(2-nitro-benzoyl)-thiazol-2-ylamino]-benzoate] | 26000 nM |  | 97 nM | 690 nM | 163 nM | 1700 nM | 3000 nM | 85% |  |  |  |  |  |  |  |
| Nc1nc(Nc2cccnc2)sc1C(=O)c1ccccc1 [A(3), [4-Amino-2-(pyridin-3-ylamino)-thiazol-5-yl]-phenyl-methanone] |  |  | 2000 nM | 6100 nM | 3500 nM |  |  | 41% | 15% |  |  |  |  |  |  |
| C[C@@H]1CN(c2ccc(Nc3nc(N)c(C(=O)c4c(F)cccc4F)s3)cc2)C[C@H](C)N1 [J(5), {4-Amino-2-[4-(cis-3,5-dimethyl-piperazin-1-yl)-phenylamino]-thiazol-5-yl}-(2,6-difluoro-phenyl)-methanone] | 700 nM | 1600 nM | 6.3 nM | 331 nM | 760 nM |  |  |  |  | 1000 nM | 1800 nM | 900 nM | 1500 nM |  |  |
| NC(=O)c1ccc(Nc2nc(N)c(C(=O)c3c(F)cccc3F)s2)cc1 [C(102), 4-[4-Amino-5-(2,6-difluoro-benzoyl)-thiazol-2-ylamino]-benzamide] | 1100 nM | 2400 nM | 21 nM | 49 nM | 17 nM |  |  |  |  | 3100 nM | 5400 nM | 880 nM | 2200 nM |  |  |
| CN1CCN(c2ccc(Nc3nc(N)c(C(=O)c4c(F)cccc4F)s3)cc2)CC1=O [C(118), 4-{4-[4-Amino-5-(2,6-difluoro-benzoyl)-thiazol-2-ylamino]-phenyl}-1-methyl-piperazin-2-one] | 640 nM | 1400 nM | 10.3 nM | 191 nM | 97 nM |  |  |  |  | 2400 nM | 5000 nM | 940 nM | 1500 nM |  |  |
| Cc1c(C(=O)c2sc(Nc3ccc(S(N)(=O)=O)cc3)nc2N)sc2ccccc12 [C(49), 4-[4-Amino-5-(3-methyl-benzo[b]thiophene-2-carbonyl)-thiazol-2-ylamino]-benzenesulfonamide] | 5600 nM | 12000 nM | 23 nM | 10 nM | 34 nM |  |  |  |  | 14000 nM | 22000 nM | 4000 nM | 20000 nM |  |  |
| Cc1nc2ccc(Nc3nc(N)c(C(=O)c4ccccc4[N+](=O)[O-])s3)cc2[nH]1 [A(6), [4-Amino-2-(2-methyl-1H-benzoimidazol-6-ylamino)-thiazol-5-yl]-(2-nitro-phenyl)-methanone] | 20000 nM | 30000 nM | 150 nM | 292 nM | 52 nM | 5000 nM | 15000 nM |  |  |  |  |  |  |  |  |
| Nc1nc(Nc2ccc3nc[nH]c3c2)sc1C(=O)c1ccccc1[N+](=O)[O-] [A(9), [4-Amino-2-(1H-benzoimidazol-6-yl-amino)-thiazol-5-yl]-(2-nitro-phenyl)-methanone] | 20000 nM | 30000 nM | 100 nM | 230 nM | 53 nM | 4000 nM | 10000 nM |  |  |  |  |  |  |  |  |
| CN(C)c1ccc(Nc2nc(N)c(C(=O)c3ccccc3[N+](=O)[O-])s2)cc1 [C(4), [4-Amino-2-(4-dimethylamino-phenylamino)-thiazol-5-yl]-(2-nitro-phenyl)-methanone] | 700 nM | 30000 nM | 95 nM | 810 nM | 90 nM | 400 nM | 3000 nM |  |  |  |  |  |  |  |  |
| Nc1nc(Nc2ccccc2)sc1C(=O)c1ccccn1 [A(4), (4-Amino-2-phenylamino-thiazol-5-yl)-pyridin-2-yl-methanone] |  |  | 2000 nM | 3100 nM | 2700 nM |  |  | 29% | 66% |  |  |  |  | 0% |  |
| CC(=O)c1ccc(Nc2nc(N)c(C(=O)c3ccccc3[N+](=O)[O-])s2)cc1 [C(24), 1-{4-[4-Amino-5-(2-nitro-benzoyl)-thiazol-2-ylamino]-phenyl}-ethanone] | 700 nM | 1500 nM | 8 nM | 248 nM | 46 nM |  |  |  |  | 1900 nM | 3000 nM | 1400 nM | 2800 nM |  |  |
| Nc1nc(Nc2ccc(C(=O)O)cc2)sc1C(=O)c1ccccc1[N+](=O)[O-] [E(1), 4-[4-Amino-5-(2-nitro-benzoyl)-thiazol-2-ylamino]-benzoic Acid] |  |  | 420 nM | 320 nM | 30 nM |  |  | 17% | 23% |  |  |  |  |  | 17% |
